What was measured:
[1] = tested on: tobacco cutworm (Spodoptera litura); assay: Biological test 1: artificial bait impregnated with emulsion; conditions: 500 ppm emulsion, 4-instar larvae, after 6 days
[2] = tested on: common mosquitoes (Culex pipiens pallens); assay: Biological test 8: mosquito-coil in glass chamber, knock-down; format: in vivo; conditions: 1.0 g of 0.3 % mosquito-coil, 0.34 m^3 chamber, after 15 minutes
Protocol: Mosquito-coil containing the present compound in an amount of 0.3 % was prepared according to the formulation example 10 for the present compounds. Ten female common mosquitoes (Culex pipiens pallens) were left in a glass chamber (70 cm × 70 cm × 70 cm : 0.34 m^3) and 1.0 g of 0.3 % mosquito-coil having both ends lit was placed in the glass chamber. After 15 minutes, the rate of knocked-down mosquitoes was examined.

[3] = tested on: common mosquitoes (Culex pipiens pallens); assay: Biological test 7: oil solution sprayed in glass chamber, knock-down; format: in vivo; conditions: 0.7 ml of 0.1 % oil solution sprayed, 0.34 m^3 chamber, after 15 minutes
Protocol: Ten female common mosquitoes (Culex pipiens pallens) were left in a glass chamber (70 cm × 70 cm × 70 cm : 0.34 m^3). 0.7 ml of 0.1 % oil solution prepared for each of the present compounds according to the formulation example 7 was sprayed with a spray gun at 0.8 atmospheric pressure. After 15 minutes, the rate of knocked-down mosquitoes was examined.

[4] = tested on: webbing clothes moth (Tineola bisselliella); assay: Biological test 13: volatile agent hung in cup with webbing clothes moth larvae; format: in vivo; conditions: volatile agent (100 µg on filter paper), 25 °C for 1 week; for mortality: 10080 min
Protocol: A wool muslin fabric (2 cm × 2 cm in size) was placed on the bottom of a polyethylene cup (bottom diameter : 10 cm, opening part diameter : 12.5 cm, height : 9.5 cm, volume : 950 cm^3 ). Ten middle instar larvae of webbing clothes moth (Tineola bisselliella) were put in the cup and each of the volatile agents prepared according to the formulation example 14 was hung from the cap in the interior of the cup. After standing at 25 °C for 1 week, the cup was opened, and the mortality and the degree of damage of the wool muslin fabric by the moths were examined (two replicate).

[5] = tested on: southern corn rootworm (Diabrotica undecimpunctata howardi); assay: Biological test 3: treated filter paper with eggs and sprouting corn; conditions: 50 ppm aqueous emulsion, after 8 days
[6] = tested on: common mosquitoes (Culex pipiens pallens); assay: Biological test 6: mosquito larvae in treated water; format: in vivo; conditions: 3.5 ppm active ingredient in water, last-instar larvae, after one day; 1440 min
Protocol: 0.7 ml of aqueous emulsion, obtained by diluting emulsifiable concentrate prepared for each of the present compounds according to the formulation example 1 was added to 100 ml of ion-exchanged water (concentration of active ingredient : 3.5 ppm). Twenty last-instar larvae of common mosquitoes (Culex pipiens pallens) were left in the water. After one day, the mortality of the common mosquitoes was examined.

[7] = tested on: houseflies (Musca domestica); assay: Biological test 9: topical application of acetone solution to houseflies; format: in vivo; conditions: 5 µg / one housefly, after 24 hours
Protocol: After 24 hours, the percent moribund was examined (two replicate).

[8] = tested on: webbing clothes moth (Tineola bisselliella); assay: Biological test 12: topical application to webbing clothes moth larvae; format: in vivo; conditions: 3 µg / insect, after 7 days
Protocol: Each of the present compounds diluted with acetone to a predetermined concentration was applied to ten middle instar larvae of webbing clothes moth (Tineola bisselliella) at the central part of the back so as to give the active ingredient in a dose of 3 µg / insect. A wool muslin fabric (2 cm × 2 cm in size) was given to the webbing clothes moths as the food. After 7 days, the mortality and the degree of damage of the wool muslin fabric by the moths were examined (two replicate).

[9] = tested on: houseflies (Musca domestica); assay: Biological test 10: vapour exposure over treated aluminum plate, houseflies; format: in vivo; conditions: 0.64 ml of 0.05 (w/v) % acetone solution, no direct contact, 25 °C for 120 minutes, after 24 hours
Protocol: (§1) After 0.64 ml of a 0.05 (w/v) % acetone solution of the present compounds was dropped into an aluminum plate (bottom diameter : 7 cm), acetone was air-dried. Ten female houseflies (Musca domestica) were left in a polyethylene cup (diameter : 9 cm; depth : 4.5 cm) and the cup was sealed with a 16-mesh nylon net to prevent direct contact of the houseflies with the compound. The cup was placed upside down on the aluminum plate at 25 °C for 120 minutes. The cup was then removed from the aluminum plate, and water and feed were given to the houseflies. After 24 hours, the percent moribund was examined (two replicate).

[10] = tested on: brown planthopper (Nilaparvata lugens); assay: Biological test 2: rice plant stalk dipped in emulsion; format: in vivo; conditions: 500 ppm aqueous emulsion, larvae, after 6 days
Protocol: A stalk of a rice plant was dipped for one minute in a 500 ppm aqueous emulsion obtained by diluting each emulsifiable concentrate of the present compounds prepared according to the formulation example 1. The rice plant stalk was air-dried and placed in a polyethylene cup (diameter : 5.5 cm) where filter paper (diameter : 5.5 cm) impregnated with 1 ml of water was put. Approximately 30 larvae of brown planthopper (Nilaparvata lugens) were put in the polyethylene cup. After 6 days, the mortality of the larvae was examined.

[11] = tested on: common mosquitoes (Culex pipiens pallens); assay: Biological test 11: vapour exposure over treated aluminum plate, mosquitoes; format: in vivo; conditions: 0.64 ml of 0.05 (w/v) % acetone solution, no direct contact, 25 °C for 120 minutes, after 24 hours
Protocol: as §1, with “common mosquitoes (Culex pipiens pallens)” for “houseflies (Musca domestica)”, “mosquitoes” for “houseflies”, “mosquitoes.” for “houseflies.”, “mortality” for “percent moribund”

[12] = tested on: German cockroaches (Blattella germanica); assay: Biological test 5: treated filter paper with sucrose bait, cockroaches low sensitive to pyrethroids; conditions: 500 ppm aqueous emulsion, male cockroaches low sensitive to pyrethroids, after six days; 8640 min
[13] = tested on: webbing clothes moth (Tineola bisselliella); assay: Biological test 14: persistence of treated filter paper in cardboard box, webbing clothes moth larvae; format: in vivo; set-up: key to degree of damage: -: no damage; +: slight damage; ++: heavy damage; +++: severe damage; conditions: 36 mg on filter paper
Protocol: A filter paper (3.2 cm × 3.2 cm in size) treated with 36 mg of each of the present compounds and two wool muslin fabrics (25 cm × 25 cm in size) were hung down at the upper part of a corrugated cardboard box (29 cm × 29 cm × 29 cm in size). After standing at 25 °C and a humidity of 60 % for 1 week, two tea-strainer balls holding 7 to 10 middle instar larvae of webbing clothes moth (Tineola bisselliella) and one piece of wool muslin cloth (2 cm × 2 cm in size) were hung down at the upper part of the box. The box was closed with a lid. After one week, the box was opened, and the percent moribund and the degree of damage of the wool muslin cloth by the moths were examined. The same tests was repeated 2 weeks, 3 weeks and 5 weeks after the treatment to examine the persistance of the present compound. The degree of damage was represented by "-" in no damage, " + " in slight damage, " ++ " in heavy damage and "+++ " in severe damage.

[14] = tested on: houseflies (Musca domestica); assay: Biological test 4: treated filter paper with sucrose bait, houseflies low sensitive to pyrethroids; conditions: 500 ppm aqueous emulsion, female houseflies low sensitive to pyrethroids, after one day; 1440 min
rats = conditions: male 7-week old rats, into the stomach in corn oil, after 7 days
Protocol: After subjecting the rats to a twenty-hour fasting, 0.1 ml of the diluted solution per 10g weight was forcibly applied into the stomach of four male 7-week old rats. The rats were given food and water four hours after the application and thereafter regularly fed and watered, and kept in a cage. After 7 days, the mortality was examined for the rats and LD50 was calculated.

C=CCc1ccc(COC(=O)[C@@H]2[C@H](/C=C(\Cl)C(F)(F)F)C2(C)C)o1 (racemic) [present compound (4), 5-allyl-2-furfuryl (1RS,cis)-3-(Z-2-chloro-3,3,3-trifluoroprop-1-enyl)-2,2-dimethylcyclopropanecarboxylate]
-: degree of damage ([13]; After 1 week) | degree of damage ([13]; After 2 weeks) | degree of damage ([13]; After 3 weeks) | degree of damage ([13]; After 5 weeks)
≥ 90%: rate of knocked-down mosquitoes [3] | mortality [6] | mortality [10]
100%: mortality [1] | rate of knocked-down mosquitoes [2] | mortality [4] | mortality of the hatched larvae and eggs [5] | percent moribund [7] | mortality [8] | percent moribund [9] | mortality [11] | mortality [12] | percent moribund ([13]; After 1 week) | percent moribund ([13]; After 2 weeks) | percent moribund ([13]; After 3 weeks) | percent moribund ([13]; After 5 weeks) | mortality [14]
no damage: degree of damage of the wool muslin fabric [4] | degree of damage of the wool muslin fabric [8]

CC1(C)C(/C=C(\Cl)C(F)(F)F)C1C(=O)OCc1coc(Cc2ccccc2)c1 (centres unmarked) [A, reference compound]
5%: percent moribund ([13]; After 3 weeks) | percent moribund ([13]; After 5 weeks)
+++: degree of damage ([13]; After 1 week) | degree of damage ([13]; After 2 weeks) | degree of damage ([13]; After 3 weeks) | degree of damage ([13]; After 5 weeks)
0%: percent moribund ([13]; After 1 week) | percent moribund ([13]; After 2 weeks)
less than 50 mg/kg: LD50 (rats)

CCCc1ccc(COC(=O)[C@@H]2[C@H](/C=C(\Cl)C(F)(F)F)C2(C)C)o1 (racemic) [present compound (3), 5-propyl-2-furfuryl (1RS,cis)-3-(Z-2-chloro-3,3,3-trifluoroprop-1-enyl)-2,2-dimethylcyclopropanecarboxylate]
≥ 90%: rate of knocked-down mosquitoes [3] | mortality [6] | mortality [10]
100%: mortality [1] | rate of knocked-down mosquitoes [2] | mortality [4] | mortality of the hatched larvae and eggs [5] | percent moribund [7] | mortality [8] | percent moribund [9] | mortality [11] | mortality [12] | percent moribund ([13]; After 1 week) | percent moribund ([13]; After 2 weeks) | percent moribund ([13]; After 3 weeks) | percent moribund ([13]; After 5 weeks) | mortality [14]
-: degree of damage ([13]; After 1 week) | degree of damage ([13]; After 2 weeks) | degree of damage ([13]; After 3 weeks) | degree of damage ([13]; After 5 weeks)
no damage: degree of damage of the wool muslin fabric [4] | degree of damage of the wool muslin fabric [8]

CCc1ccc(COC(=O)[C@@H]2[C@H](/C=C(\Cl)C(F)(F)F)C2(C)C)o1 (racemic) [present compound (2), 5-ethyl-2-furfuryl (1RS,cis)-3-(Z-2-chloro-3,3,3-trifluoroprop-1-enyl)-2,2-dimethylcyclopropanecarboxylate]
-: degree of damage ([13]; After 1 week) | degree of damage ([13]; After 2 weeks) | degree of damage ([13]; After 3 weeks) | degree of damage ([13]; After 5 weeks)
≥ 90%: rate of knocked-down mosquitoes [3] | mortality [6] | mortality [10]
no damage: degree of damage of the wool muslin fabric [4] | degree of damage of the wool muslin fabric [8]
100%: mortality [1] | rate of knocked-down mosquitoes [2] | mortality [4] | mortality of the hatched larvae and eggs [5] | percent moribund [7] | mortality [8] | percent moribund [9] | mortality [11] | mortality [12] | percent moribund ([13]; After 1 week) | percent moribund ([13]; After 2 weeks) | percent moribund ([13]; After 3 weeks) | percent moribund ([13]; After 5 weeks) | mortality [14]

CC1(C)C(/C=C(\Cl)C(F)(F)F)C1C(=O)OCc1ccc(C(F)F)o1 (centres unmarked) [B, reference compound]
33%: percent moribund ([13]; After 2 weeks)
53%: percent moribund ([13]; After 3 weeks)
50%: percent moribund ([13]; After 1 week)
+++: degree of damage ([13]; After 1 week) | degree of damage ([13]; After 2 weeks) | degree of damage ([13]; After 3 weeks) | degree of damage ([13]; After 5 weeks)
42%: percent moribund ([13]; After 5 weeks)

C#CCc1ccc(COC(=O)C2C(/C=C(\Cl)C(F)(F)F)C2(C)C)o1 (centres unmarked) [C, reference compound]
7%: percent moribund ([13]; After 1 week)
37%: percent moribund ([13]; After 5 weeks)
+++: degree of damage ([13]; After 1 week) | degree of damage ([13]; After 2 weeks) | degree of damage ([13]; After 3 weeks) | degree of damage ([13]; After 5 weeks)
20%: percent moribund ([13]; After 3 weeks)
63%: percent moribund ([13]; After 2 weeks)
less than 100 mg/kg: LD50 (rats)

— patent publication EP0989125B1, “Pesticidal furylmethyl cyclopropanecarboxylates” (Sumitomo Chemical Company, Limited, priority 1998, dated 2000)
